Data as given in patent US12024506B2, “Compounds” (Oxford University Innovation Limited, priority 2018, dated 2024).
“Also recorded” adds a separate entry of the source.

Experiments:
Assay type in all cases: cell-based
Settings in all cases: HEK293T cells, 5, 10 and 20 μM, 20 h
[1] = molecular target: T1, NRASQ61H interaction with PI3K, CRAF, RALGDS (Homo sapiens, UniProt P01111, Q61H); assay: BRET2 cell assay, NRAS Q61H-effector interaction
T1 construct: expressed in transfected cells; host or cells: HEK293T
Description: (§1) The BRET ratio corresponds to the light emitted by the GFP2 acceptor constructs (515 nm±30) upon addition of Coelenterazine 400a divided by the light emitted by the RLuc8 donor constructs (410 nm±80). The normalized BRET ratio is the BRET ratio normalized to the DMSO negative and calculated as follows: (BRETcompound/BRETDMSO)×100, where BRETcompound corresponds to the BRET ratio for the compound-treated cells, BRETDMSO to the DMSO-treated cells. Each experiment was repeated at least three times. Statistical analyses were performed using a one-way ANOVA followed by Dunnett's post-tests (*P<0.05, **P<0.01, ***P<0.001, ****P<0.0001). Where error bars are presented, they correspond to mean values±SD of biological repeats (a-c).
(§2) HEK293T cells were transfected 24 hr with plasmids expressing the NRAS Q61H […] and HRAS G12V (B, D) biosensors together with the indicated RBDs of PI3K, CRAF and RALGDS (A, B) or full-length CRAF. […]
(§3) 650,000 HEK293T were seeded in each well of a 6 well plate. […] The final concentrations in the cells were 0, 5, 10 and 20 µM (therefore the intermediate 10× concentrations were 0, 50, 100 and 200 μM. 10 μL of 10× compounds were added in each well of the 96 well plate to 0, 5, 10 and 20 µM final concentrations (with final 0.2% DMSO each). Quadruplicates were performed for each point. Cells were left for an additional 20 hours at 37° C. before the BRET2 signal reading directly after addition of Coelenterazine 400a substrate (10 µM final) to cells (Cayman Chemicals, cat #16157). BRET2 reading was carried out on an Envision instrument (2103 Multilabel Reader, PerkinElmer) with the BRET2 Dual Emission optical module (515 nm±30 and 410 nm±80; PerkinElmer).
(§4) The ability of Example compound 56 to inhibit RAS-effector PPI using the above cell-based RAS-effector BRET2 assay was investigated. […] We determined the effect of compound 56 (labelled Abd-7) on the interaction of KRAS^G12D and with PI3Kα and PI3Kγ, CRAF RAS-binding domain (RBD) and RALGDS RAS-associating domain (RA) compared with the low affinity Reference Compound Abd-2 FIG. 1a). […]

[2] = molecular target: T2, HRASG12V interaction with PI3K, CRAF, RALGDS (Homo sapiens, UniProt P01112, G12V); assay: BRET2 cell assay, HRAS G12V-effector interaction
T2 construct: expressed in transfected cells; host or cells: HEK293T
Description: as §1, §2, §3, §4

[3] = molecular target: T3, KRASG12D interaction with PI3Kα, PI3Kγ, CRAF RBD, RALGDS RA (Homo sapiens, UniProt P01116, G12D); assay: BRET2 cell assay, KRAS G12D-effector interaction
T3 construct: expressed in transfected cells; host or cells: HEK293T
Description: as §1
as §3, with “plate. 24 hours later, cells were transfected with an appropriated BRET-based RAS biosensor (i.e. RAS-effector) using Lipofectamine 2000 transfection reagent (Thermo-Fisher).” for “plate.”
as §4

Effect on BRET signal, NRAS Q61H/effector interactions [1]: does not interfere with the BRET signal | Effect on BRET signal, HRAS G12V/effector interactions [2]: does not interfere with the BRET signal
SMILES: O=C(NCC1COc2ccccc2O1)c1ccco1 (stereo not drawn) [Abd-2, reference compound]
Effect on BRET signal, KRAS G12D/effector interactions [3]: no effect on the BRET signal; also recorded: not with the Abd-2
